This note sets out measurements from patent publication US8293706B2, “Method for inhibiting release of hepatitis B virus from liver cells” (priority 2008, dated 2012).

Where two headings read alike, the source gives them in different places. Some results are limits rather than exact numbers.

Data set [1] has as its system HBV WT. As to the kind of experiment: HBVDR assay, strain WT. The note with it: assay type HBVDR. Format: cell-based.
Data set [2] deals with HBV. Briefly: Inhibition of HBV release from 2.2.15 cells (HBV virion DNA in culture medium, quantitative blot hybridization). In kind it is cell-based. The note with it: for SI: S.I. (CC50/EC90). The procedure:
(§1) The ability of sLDLR to inhibit pathogenic viruses was tested by the NIAID Antimicrobial Acquisition and Coordinating Facility (AACF). Confluent cultures of 2.2.15 cells (HBV-infected human HepG2 hepatocellular carcinoma cells (ATCC HB-8065), constitutively shedding HBV virions) were maintained on 96-well flat-bottomed tissue culture plates in RPMI1640 medium with 2% fetal bovine serum (Korba & Gerin, Antivir. Res. 19:55-70, 1992). Cultures (6 per each of 4 test concentrations on two replicate plates) were treated with 9 consecutive daily doses of sLDL compounds. Medium was changed daily with fresh test compounds. HBV virion DNA in the culture medium was assessed 24 hours after the last treatment by quantitative blot hybridization. Uptake of neutral red dye (absorbance of internalized dye at […] [A510]) wa used to determine the relative level of toxicity 24 hours following the last treatment (Korba & Gerin, Antivir. Res. 19:55-70, 1992). Values are presented as a percentage of the average A510 values for 9 separate cultures of untreated cells maintained on the same plate. Cultures for the toxicity analyses were seeded at the same time with the identical pool of stock cells used for the antiviral analyses and maintained in an identical manner. A total of 3 cultures were treated with each concentration of test compound. […] CC50, EC50, EC90, and S.I. (CC50/EC90) were calculated. Lamivudine (3TC) was used as a positive assay control.

Data set [3] relates to HBV N236T. Briefly: HBVDR assay, strain N236T. In kind it is cell-based.
Data set [4] has as its system HBV M204V. As to the kind of experiment: HBVDR assay, strain M204V. Format: cell-based.
For data set [5], the system named is HBV LM/MV. Briefly: HBVDR assay, strain LM/MV. In kind it is cell-based.
Data set [6] is described as follows: Neutral red dye uptake toxicity in 2.2.15 cells. Format: cell-based, human. The note with it: human, neutral red uptake (A510) 24 hours after last of 9 daily treatments, positive assay control. The procedure: as §1, with “Lamivudine (3TC) was used as a positive assay control.” left out
The test system of data set [7] is HBV L180M. Briefly: HBVDR assay, strain L180M. In kind it is cell-based.
Data set [8] relates to HBV M204I. Briefly: HBVDR assay, strain M204I. In kind it is cell-based.
Data set [9] deals with lamivudine as well as adefovir dipovoxil resistant mutants (HBV). As to the kind of experiment: HBVDR assay, panel of resistant mutants. As to conditions: all tested resistant mutants. Format: cell-based.
Data set [10] relates to 2.2.15 cells (HBV-infected human HepG2 hepatocellular carcinoma cells). As to the kind of experiment: Neutral red dye uptake toxicity in 2.2.15 cells. In kind it is cell-based. As to conditions: neutral red uptake (A510) 24 hours after last of 9 daily treatments. The procedure: as §1, with “Lamivudine (3TC) was used as a positive assay control.” left out
[11] abbreviates: HBV virion DNA in culture medium 24 hours after last of 9 consecutive daily doses, 2.2.15 cells.
The mark [12] stands for this setting: HBV strain N236T, assay type HBVDR, read-out: EC50.
Where [13] appears, read: HBV strain N236T, assay type HBVDR, read-out: EC90.
Where [14] appears, read: HBV strain M204V, assay type HBVDR, read-out: EC50.
Where [15] appears, read: HBV strain M204V, assay type HBVDR, read-out: EC90.
[16] abbreviates: HBV strain LM/MV, assay type HBVDR, read-out: EC50.
Where [17] appears, read: HBV strain LM/MV, assay type HBVDR, read-out: EC90.
The mark [18] stands for this setting: HBV strain L180M, assay type HBVDR, read-out: EC50.
[19] abbreviates: HBV strain L180M, assay type HBVDR, read-out: EC90.
The mark [20] stands for this setting: HBV strain M204I, assay type HBVDR, read-out: EC50.
Setting [21] is: HBV strain M204I, assay type HBVDR, read-out: EC90.

Usually EC50 stands for the midpoint of the concentration-response curve. In general, EC90 refers to the concentration needed for an effect of 90%. Usually CC50 stands for the concentration at which the toxic effect on the cells reaches its halfway point. For the compound `Nc1ccn([C@@H]2CS[C@H](CO)O2)c(=O)n1` [Lamivudine], the EC50 in data set [1] (Hepatitis B virus) was 0.2 µM; in [2] (Hepatitis B virus, 24 h) it was 0.045 µM; in data set [3] (Hepatitis B virus) it was 0.2 µM; in data set [4] (Hepatitis B virus), greater than 100 µM; in data set [5] (Hepatitis B virus), greater than 100 µM; in [7] (Hepatitis B virus), 5.2 µM. Further, the concentration for a half-maximal effect (EC50) in data set [8] (Hepatitis B virus) was greater than 100 µM. In addition, the EC90 in data set [1] (Hepatitis B virus) was 0.7 µM; in data set [2] (Hepatitis B virus, 24 h), 0.146 µM; in data set [3] (Hepatitis B virus), 0.6 µM; in data set [4] (Hepatitis B virus), greater than 100 µM; in data set [5] (Hepatitis B virus), greater than 100 µM; in data set [7] (Hepatitis B virus), 20 µM. Moreover, the EC90 in [8] (Hepatitis B virus) is greater than 100 µM. Further, in data set [2] (Lamivudine columns), the SI stood at 15178. In data set [6], the CC50 is 2310 µM.
As for sLDLR, the “activity against lamivudine and adefovir dipovoxil resistant mutants” value in data set [9] is recorded as “active against all tested lamivudine as well as adefovir dipovoxil resistant mutants”. Moreover, the concentration giving a half-maximal response (EC50) stood at 0.9 µM in data set [1]; 0.131 µg/mL in data set [2] (setting [11]); 1 µM in [3] (setting [12]); 1 µM in data set [4] (setting [14]); 1.2 µM in data set [5] (setting [16]); 0.8 µM in data set [7] (setting [18]). Also, in data set [8] (setting [20]), the concentration giving a half-maximal response (EC50) came to 1.1 µM. Further, the EC90 in [1] was 6 µM; in data set [2] (setting [11]), 0.922 µg/mL; in [3] (setting [13]) it was 8.2 µM; in data set [4] (setting [15]), 6.5 µM; in data set [5] (setting [17]), 7.5 µM; in data set [7] (setting [19]), 6.3 µM. In data set [8] (setting [21]), the EC90 amounted to 8 µM. Besides, in data set [2] (2.2.15 cells), the “inhibition of formation of HBV virion from virus-infected cells relative to toxicity” value was “inhibited the formation of HBV virion from virus-infected cells at concentrations far below toxicity”. The SI in data set [2] (sLDLR columns) was greater than 11. The same compound registered a CC50 in data set [10] greater than 10 µg/mL.
Regarding `CC(C)(C)C(=O)OCOP(=O)(COCCn1cnc2c(N)ncnc21)OCOC(=O)C(C)(C)C` [ADV, Adefovir Dipovoxil], the EC50 in data set [1] is 1.5 µM; in data set [3] (setting [12]) it was 8.1 µM; in data set [4] (setting [14]) it was 1.8 µM; in data set [5] (setting [16]), 1.3 µM; in data set [7] (setting [18]), 1.9 µM; in data set [8] (setting [20]) it was 1.3 µM. Besides, the concentration for an effect of 90% (EC90) in data set [1] was found to be 6.5 µM; in [3] (setting [13]), 32 µM; in data set [4] (setting [15]), 7 µM; in data set [5] (setting [17]) it was 7.8 µM; in data set [7] (setting [19]) it was 8.5 µM; in data set [8] (setting [21]), 7.2 µM.
